Laboratory results as given in PubChem BioAssay AID296 (DTP/NCI, 2004).
Where “and” joins values, the source holds several entries; their conditions need not be identical. Equal values may be shown once. Results filed as inconclusive are left out. Where a SMILES comes first, the peptide text is derived from it. Bridges are numbered along the chain shown (N, C = ends). Roman numbers before positions name the chains, in order. [ ]: non-standard residue; d: D form. The star is where a group is joined. Quinoxaline2carbonyl = O=C(c1cnc2ccccc2n1)*; NMeV = CN[CH](C(=O)O)C(C)C; NMeC = CN[CH](CS)C(=O)O

Test system: MX-1 breast xenograft, nude mice, tumor weight T/C
Assay: NCI In Vivo Anticancer Drug Screen. Data for tumor model Human Mammary Carcinoma MX-1 Xenograft (intrarenal inoculation) in NU/NU Swiss (nude) mice
Conditions: endpoint: mean tumor weight change, higher = larger tumour
In short: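 Antitumour effect measured in vivo against vehicle controls, expressed as T/C.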

[1] = dose: 150.0 mg/kg/injection, schedule: Q04DX003 (sc), vehicle: saline with Tween-80
[2] = dose: 300.0 mg/kg/injection, schedule: Q04DX003 (sc), vehicle: saline with Tween-80
[3] = dose: 600.0 mg/kg/injection, schedule: Q04DX003 (sc), vehicle: saline with Tween-80
[4] = dose: 1200.0 mg/kg/injection, schedule: Q04DX003 (sc), vehicle: saline with Tween-80
[5] = dose: 37.5 mg/kg/injection, schedule: Q04DX003 (sc), vehicle: saline with Tween-80
[6] = dose: 75.0 mg/kg/injection, schedule: Q04DX003 (sc), vehicle: saline with Tween-80
[7] = dose: 2400.0 mg/kg/injection, schedule: Q04DX003 (sc), vehicle: saline with Tween-80
[8] = dose: 25.0 mg/kg/injection, schedule: Q01DX010 (sc), vehicle: saline with Tween-80
[9] = dose: 50.0 mg/kg/injection, schedule: Q01DX010 (sc), vehicle: saline with Tween-80

CC(C)(C)NC(C1=CC(C)(C)c2ccccc2C1=O)c1ccccc1 (centres undefined)
T/C (dose: 150.0 mg/kg/injection, schedule: Q04DX003 (ip), vehicle: Klucel (hydroxypropylcellulose) (HPC)): 87 % of control
T/C (dose: 300.0 mg/kg/injection, schedule: Q04DX003 (ip), vehicle: Klucel (hydroxypropylcellulose) (HPC)): 75 % of control

O=S(=O)(O)c1cc(N=C=S)ccc1/C=C/c1ccc(N=C=S)cc1S(=O)(=O)O
T/C (dose: 150.0 mg/kg/injection, schedule: Q04DX003 (ip), vehicle: saline): 47 % of control

CCN(C)N=Nc1ccc(C(N)=O)cc1
T/C (dose: 150.0 mg/kg/injection, schedule: Q04DX003 (sc), vehicle: Klucel (hydroxypropylcellulose) (HPC)): 38 % of control
T/C (dose: 300.0 mg/kg/injection, schedule: Q04DX003 (sc), vehicle: Klucel (hydroxypropylcellulose) (HPC)): 21 % of control

CO[C@@H]1[C@H](O)CC[C@]2(CO2)[C@H]1[C@@]1(C)O[C@@H]1CC=C(C)C
T/C [1]: 150 % of control
T/C [2]: 79 % of control
T/C [3]: 99 % of control
T/C [4]: 96 % of control

O=c1[nH]cnc2c1ccn2C1OC(CO)C(O)C1O (centres undefined)
T/C (dose: 12.5 mg/kg/injection, schedule: Q04DX003 (sc), vehicle: saline): 57 % of control
T/C (dose: 25.0 mg/kg/injection, schedule: Q04DX003 (sc), vehicle: saline): 71 % of control

Nc1nc(N)c2c(Cl)c(CNc3ccc(Cl)c(Cl)c3)ccc2n1
T/C (dose: 18.75 mg/kg/injection, schedule: Q04DX003 (sc), vehicle: saline with Tween-80): 80 % of control
T/C [5]: 87 % of control
T/C [6]: 93 % of control
T/C [1]: 111 % of control

c1ccc(CN2CCOC2)cc1
T/C (dose: 25.0 mg/kg/injection, schedule: Q01DX010 (sc), vehicle: saline): 60 % of control
T/C (dose: 50.0 mg/kg/injection, schedule: Q01DX010 (sc), vehicle: saline): 78 % of control
T/C (dose: 100.0 mg/kg/injection, schedule: Q01DX010 (sc), vehicle: saline): 70 % of control
T/C (dose: 200.0 mg/kg/injection, schedule: Q01DX010 (sc), vehicle: saline): 47 % of control

O/N=C/c1ccccc1O.O/N=C/c1ccccc1O.[Cu]
T/C [2]: 81 % of control
T/C [3]: 72 % of control
T/C [4]: 60 % of control
T/C [7]: 103 % of control

c1cc[c]([Sn]([NH]c2ncnc3[nH]cnc23)([NH]c2ncnc3[nH]cnc23)[c]2ccccc2)cc1
T/C (dose: 75.0 mg/kg/injection, schedule: Q04DX003 (sc), vehicle: suspension in saline): 76 % of control
T/C (dose: 150.0 mg/kg/injection, schedule: Q04DX003 (sc), vehicle: suspension in saline): 109 % of control
T/C (dose: 300.0 mg/kg/injection, schedule: Q04DX003 (sc), vehicle: suspension in saline): 111 % of control
T/C (dose: 600.0 mg/kg/injection, schedule: Q04DX003 (sc), vehicle: suspension in saline): 76 % of control

O=C1c2ccccc2C(=O)c2c3c(cc(NCCNCCO)c21)N(CCO)CCN3
T/C (dose: 12.5 mg/kg/injection, schedule: Q04DX003 (sc), vehicle: DMSO): 95 % of control
T/C (dose: 25.0 mg/kg/injection, schedule: Q04DX003 (sc), vehicle: DMSO): 101 % of control
T/C (dose: 50.0 mg/kg/injection, schedule: Q04DX003 (sc), vehicle: DMSO): 77 % of control
T/C (dose: 100.0 mg/kg/injection, schedule: Q04DX003 (sc), vehicle: DMSO): 111 % of control
T/C (dose: 200.0 mg/kg/injection, schedule: Q04DX003 (sc), vehicle: DMSO): 151 % of control

O=C1C2CC=CCC2C(=O)N1SC(Cl)(Cl)Cl (centres undefined)
T/C [5]: 85 % of control
T/C [6]: 77 % of control
T/C [1]: 97 % of control and 119 % of control
T/C [2]: 97 % of control and 112 % of control

O=C(O)C1(NO)CCCCC1
T/C (dose: 200.0 mg/kg/injection, schedule: Q04DX003 (sc), vehicle: Klucel (hydroxypropylcellulose) (HPC)): 110 % of control
T/C (dose: 400.0 mg/kg/injection, schedule: Q04DX003 (sc), vehicle: Klucel (hydroxypropylcellulose) (HPC)): 100 % of control
T/C (dose: 800.0 mg/kg/injection, schedule: Q04DX003 (sc), vehicle: Klucel (hydroxypropylcellulose) (HPC)): 123 % of control
T/C (dose: 1600.0 mg/kg/injection, schedule: Q04DX003 (sc), vehicle: Klucel (hydroxypropylcellulose) (HPC)): 64 % of control

N#CC(OC1OC(COC2OC(CO)C(O)C(O)C2O)C(O)C(O)C1O)c1ccccc1 (centres undefined)
T/C (dose: 300.0 mg/kg/injection, schedule: Q04DX003 (sc), vehicle: saline): 67 % of control
T/C (dose: 600.0 mg/kg/injection, schedule: Q04DX003 (sc), vehicle: saline): 83 % of control
T/C (dose: 1200.0 mg/kg/injection, schedule: Q04DX003 (sc), vehicle: saline): 71 % of control
T/C (dose: 2400.0 mg/kg/injection, schedule: Q04DX003 (sc), vehicle: saline): 75 % of control

CO[C@@]12[C@@H]3N[C@@H]3CN1C1=C(C(=O)C(NCCc3ccccn3)=C(C)C1=O)[C@@H]2COC(N)=O
T/C (dose: 6.25 mg/kg/injection, schedule: Q04DX003 (ip), vehicle: saline with Tween-80): -84 % of control
T/C (dose: 12.5 mg/kg/injection, schedule: Q04DX003 (ip), vehicle: saline with Tween-80): -21 % of control
T/C (dose: 25.0 mg/kg/injection, schedule: Q04DX003 (ip), vehicle: saline with Tween-80): -95 % of control

O=C1NC(=O)/C(=C/C=C/c2ccccc2)S1
T/C [2]: 111 % of control
T/C [3]: 98 % of control
T/C [4]: 84 % of control
T/C [7]: 66 % of control

O=Cc1ccc([N+](=O)[O-])s1
T/C [8]: 90 % of control
T/C [9]: 89 % of control
T/C (dose: 100.0 mg/kg/injection, schedule: Q01DX010 (sc), vehicle: saline with Tween-80): 56 % of control

O=C(C/C(=N\C(=S)Nc1cc(C(F)(F)F)ccc1Cl)NO)N1CCCC1
T/C [1]: 88 % of control
T/C [2]: 94 % of control
T/C [3]: 82 % of control
T/C [4]: 98 % of control

Nc1nc(/C=C(/O)c2ccccc2)c2ncn(C3OC(CO)C(O)C3O)c2n1 (centres undefined)
T/C (dose: 200.0 mg/kg/injection, schedule: Q04DX003 (sc), vehicle: distilled water + Tween-80): 97 % of control
T/C (dose: 400.0 mg/kg/injection, schedule: Q04DX003 (sc), vehicle: distilled water + Tween-80): 100 % of control
T/C (dose: 800.0 mg/kg/injection, schedule: Q04DX003 (sc), vehicle: distilled water + Tween-80): 92 % of control
T/C (dose: 1600.0 mg/kg/injection, schedule: Q04DX003 (sc), vehicle: distilled water + Tween-80): 99 % of control

CC(=O)OCC1OC(n2cc(CBr)nn2)C(OC(C)=O)C(OC(C)=O)C1OC(C)=O (centres undefined)
T/C (dose: 12.5 mg/kg/injection, schedule: Q01DX010 (sc), vehicle: saline with Tween-80): 106 % of control
T/C [8]: 117 % of control
T/C [9]: 117 % of control

CC1CN1C(=O)NCCCCCCNC(=O)N1CC1C (centres undefined)
T/C (dose: 5.0 mg/kg/injection, schedule: Q04DX003 (sc), vehicle: Klucel (hydroxypropylcellulose) (HPC)): 21 % of control
T/C (dose: 40.0 mg/kg/injection, schedule: Q04DX003 (sc), vehicle: Klucel (hydroxypropylcellulose) (HPC)): -86 % of control and -63 % of control

CC1NC(=O)C(NC(=O)c2cnc3ccccc3n2)COC(=O)C(C(C)C)N(C)C(=O)C2CSSCC(C(=O)N(C)C(C(C)C)C(=O)OCC(NC(=O)c3cnc4ccccc4n3)C(=O)NC(C)C(=O)N2C)N(C)C1=O (centres undefined) (I: Quinoxaline2carbonyl-SA[NMeC][NMeV] / II: Quinoxaline2carbonyl-SA[NMeC][NMeV]; ester I:1-II:C, I:C-II:1; disulfide I:3-II:3; configuration not given here)
T/C (dose: 100.0 micrograms/kg/injection, schedule: Q04DX003 (sc), vehicle: Klucel (hydroxypropylcellulose) (HPC)): 63 % of control
T/C (dose: 200.0 micrograms/kg/injection, schedule: Q04DX003 (sc), vehicle: Klucel (hydroxypropylcellulose) (HPC)): 62 % of control
T/C (dose: 400.0 micrograms/kg/injection, schedule: Q04DX003 (sc), vehicle: Klucel (hydroxypropylcellulose) (HPC)): 73 % of control
T/C (dose: 800.0 micrograms/kg/injection, schedule: Q04DX003 (sc), vehicle: Klucel (hydroxypropylcellulose) (HPC)): 46 % of control

NC(=O)/C=C/C(=O)c1c(Cl)cccc1Cl
T/C (dose: 9.0 mg/kg/injection, schedule: Q04DX003 (sc), vehicle: saline with Tween-80): 78 % of control
T/C (dose: 36.0 mg/kg/injection, schedule: Q04DX003 (sc), vehicle: saline with Tween-80): 43 % of control

CC(=O)Nc1ccc(S(=O)(=O)CO)cc1
T/C [2]: 121 % of control
T/C [3]: 85 % of control

CC[C@](O)(C(=O)O)c1cc2n(c(=O)c1CO)Cc1cc3ccccc3nc1-2
T/C (dose: 8.0 mg/kg/injection, schedule: Q04DX003 (sc), vehicle: saline): 2 % of control
T/C (dose: 16.0 mg/kg/injection, schedule: Q04DX003 (sc), vehicle: saline): -92 % of control
T/C (dose: 32.0 mg/kg/injection, schedule: Q04DX003 (sc), vehicle: saline): -89 % of control
T/C (dose: 64.0 mg/kg/injection, schedule: Q04DX003 (sc), vehicle: saline): -100 % of control
